Test results taken from article PMC5541792, “Simultaneous Determination of 11 Compounds in Gualou Guizhi Granule and Pharmacokinetics Study by UPLC-MS/MS” (Journal of Analytical Methods in Chemistry, 2017).

Tests used:
[1] = Pharmacokinetic study in rats after oral administration of GLGZG (UPLC-MS/MS of plasma); type: in vivo, rat; details: for AUC(0–∞) / Tmax / MRT inf / half-life / Vd/F: rat plasma, male SD rats, oral GLGZG 3.6 g·(kg·day)^−1, n = 6; for MRT inf: read-out: MRT(0–∞) (converted); for half-life: read-out: T 1/2z; for Vd/F: read-out: Vz/F; for Plasma concentration-time behaviour (in words): rat plasma after oral GLGZG
Protocol: Chromatographic separation was performed on an Waters CORTECS C18 (2.1 × 100 mm, 1.6 μm) with the column temperature at 45°C. The mobile phase was composed of 0.1% formic acid in water (A) and acetonitrile (B) with a gradient program (0–0.5 min from 8% to 10% B; 0.5–2.5 min from 10% to 15% B; 2.5–4.0 min from 15% to 60% B; 4.0–5.0 min from 60% to 95% B; 5.0–6.5 min 95% B). The flow rate was 0.25 mL/min and the injection volume was 1 μL.
Mass spectrometry was operated using a Waters (Milford, MA) Xevo TQMS with an electrospray ion source (ESI) in the negative ion multiple reaction monitoring (MRM) mode. The other detailed MS parameters were as follows: drying gas: N2 (purity of 99.9%), 15 L/min, nebulizing gas: 50 L/min, capillary voltage: 2.5 kv.
Plasma samples (100 μL of plasma) and IS working solutions (10 μL of swertiamarin, kaempferol-3-O-rutinoside, and ginsenoside Rb1) were combined and briefly vortex-mixed for 3 min followed by the addition of 4-fold acetonitrile. Then the mixture was centrifuged at 12000 rpm for 10 min. The supernatant was transferred to a clean tube and concentrated up to dryness; the residue was dissolved in 100 μL 50% methanol. Finally, 1 μL aliquot was injected into UPLC-MS/MS system for analysis.
Six male SD rats, weighing 250 ± 20 g, were provided by Experimental Animal Research Center of Fujian TCM University (Fuzhou, China). And they were housed at controlled environmental conditions (temperature: 23 ± 2°C, relative humidity: 55 ± 10%) with free access to standard laboratory food and water. The rats were fasted for 12 h but with access to water before being given GLGZG (3.6 g·(kg·day)^−1). Blood samples of 0.3 mL were collected in heparin containing tubes from epicanthic veins of rats by capillary tube before dose (0 h) and at 5 min, 10 min, 20 min, 0.5 h, 1 h, 1.5 h, 2 h, 3 h, 6 h, 9 h, and 12 h. Then they were centrifuged at 12000 rpm for 10 min. The supernatant liquor was collected and frozen at −20°C until use.
The validated UPLC-MS/MS method was successfully applied to the PK studies of eleven analytes following oral administration of GLGZG to individual male rats (n = 6). The main pharmacokinetic parameters were summarized in Table 8 and the mean plasma concentration-time profiles of the eleven analytes were illustrated in Figure 3.

[2] = Stability of analytes in rat plasma samples (method validation); type: in vitro ADME; details: n = 6; for Autosampler stability (24 h) Mean: 4°C for 24 h; for Stability (24 h at room temperature) Mean: 25°C for 24 h; for Freeze-thaw stability (3 cycles) Mean: three freeze-thaw cycles at −80°C
Protocol: Stability of the analytes from plasma samples was performed by determining three different concentrations (low, middle, and high samples) in six replicates under different conditions. It included short-term stability which was assessed by keeping samples at room temperature (25°C) for 24 h, stability which was measured using samples stored at 4°C for 24 h, and freeze-thaw stability that was determined after three freeze-thaw cycles at −80°C.

[3] = middle QC nominal concentration

SMILES: CC12CC(O)C3CC1(OC1OC(CO)C(O)C(O)C1O)C3(COC(=O)c1ccccc1)C(=O)O2 (stereo not drawn) [Albiflorin, albiflorin]
- AUC(0–∞) [1]: 1263.37 ± 306.91 mg·L/min
- Tmax [1]: 1 h
- MRT inf [1]: 3.59 h
- half-life [1]: 2.13 ± 0.596 h
- Vd/F [1]: 2.67 ± 0.87 L/kg
- Autosampler stability (24 h) Mean ([2]; high QC nominal concentration): 107.72%
- Autosampler stability (24 h) Mean ([2]; low QC nominal concentration): 97.93%
- Autosampler stability (24 h) Mean [2, 3]: 111.49%
- Stability (24 h at room temperature) Mean ([2]; high QC nominal concentration): 108.45%
- Stability (24 h at room temperature) Mean ([2]; low QC nominal concentration): 94.78%
- Stability (24 h at room temperature) Mean [2, 3]: 93.66%
- Freeze-thaw stability (3 cycles) Mean ([2]; high QC nominal concentration): 98.89%
- Freeze-thaw stability (3 cycles) Mean ([2]; low QC nominal concentration): 99.77%
- Freeze-thaw stability (3 cycles) Mean [2, 3]: 108.14%

SMILES: CC1(C)[C@@H](O)CC[C@]2(C)[C@H]3C(=O)C=C4[C@@H]5C[C@@](C)(C(=O)O)CC[C@]5(C)CC[C@@]4(C)[C@]3(C)CC[C@@H]12 [Glycyrrhetinic acid, glycyrrhetinic acid]
- AUC(0–∞) [1]: 2041.10 ± 706.58 mg·L/min
- Tmax [1]: 10 h
- MRT inf [1]: 11.8 h
- half-life [1]: 2.2 ± 0.472 h

SMILES: CC1(C)[C@@H](O[C@H]2O[C@H](C(=O)O)[C@@H](O)[C@H](O)[C@H]2O[C@@H]2O[C@H](C(=O)O)[C@@H](O)[C@H](O)[C@H]2O)CC[C@]2(C)[C@H]3C(=O)C=C4[C@@H]5C[C@@](C)(C(=O)O)CC[C@]5(C)CC[C@@]4(C)[C@]3(C)CC[C@@H]12 [Glycyrrhizic acid, glycyrrhizic acid]
- Plasma concentration-time behaviour (in words) [1]: double-peak phenomenon
- AUC(0–∞) [1]: 1262.61 ± 158.73 mg·L/min
- Tmax [1]: 0.9 h
- MRT inf [1]: 4.4 h
- half-life [1]: 2.86 ± 0.561 h
- Vd/F [1]: 3.92 ± 1.44 L/kg
- Autosampler stability (24 h) Mean ([2]; low QC nominal concentration): 97.71%
- Autosampler stability (24 h) Mean [2, 3]: 92.82%
- Stability (24 h at room temperature) Mean ([2]; high QC nominal concentration): 94.94%
- Stability (24 h at room temperature) Mean ([2]; low QC nominal concentration): 96.05%
- Stability (24 h at room temperature) Mean [2, 3]: 92.18%
- Freeze-thaw stability (3 cycles) Mean ([2]; high QC nominal concentration): 98.20%
- Freeze-thaw stability (3 cycles) Mean ([2]; low QC nominal concentration): 98.31%
- Freeze-thaw stability (3 cycles) Mean [2, 3]: 108.78%

SMILES: O=C(/C=C/c1ccc(O)cc1)c1ccc(O)cc1O [Isoliquiritigenin, isoliquiritigenin]
- Plasma concentration-time behaviour (in words) [1]: low in the blood
- AUC(0–∞) [1]: 8.52 ± 0.98 mg·L/min
- Tmax [1]: 0.5 h
- MRT inf [1]: 4.76 h
- half-life [1]: 3.4 ± 0.675 h
- Vd/F [1]: 700 ± 187 L/kg
- Autosampler stability (24 h) Mean ([2]; high QC nominal concentration): 108.30%
- Autosampler stability (24 h) Mean ([2]; low QC nominal concentration): 106.19%
- Autosampler stability (24 h) Mean [2, 3]: 91.71%
- Stability (24 h at room temperature) Mean ([2]; low QC nominal concentration): 99.77%
- Stability (24 h at room temperature) Mean [2, 3]: 93.66%
- Freeze-thaw stability (3 cycles) Mean ([2]; high QC nominal concentration): 109.21%
- Freeze-thaw stability (3 cycles) Mean ([2]; low QC nominal concentration): 99.28%
- Freeze-thaw stability (3 cycles) Mean [2, 3]: 107.70%

SMILES: O=C(/C=C/c1ccc(O[C@@H]2O[C@H](CO)[C@@H](O)[C@H](O)[C@H]2O)cc1)c1ccc(O)cc1O [Isoliquiritin, isoliquiritin]
- AUC(0–∞) [1]: 27.17 ± 2.69 mg·L/min
- Tmax [1]: 0.472 h
- MRT inf [1]: 5.66 h
- half-life [1]: 4.6 ± 0.866 h
- Vd/F [1]: 297 ± 70 L/kg
- Autosampler stability (24 h) Mean ([2]; high QC nominal concentration): 95.62%
- Autosampler stability (24 h) Mean [2, 3]: 97.14%
- Stability (24 h at room temperature) Mean [2, 3]: 99.28%
- Freeze-thaw stability (3 cycles) Mean ([2]; high QC nominal concentration): 108.88%
- Freeze-thaw stability (3 cycles) Mean ([2]; low QC nominal concentration): 98.98%
- Freeze-thaw stability (3 cycles) Mean [2, 3]: 94.03%

SMILES: O=C1C[C@@H](c2ccc(O)cc2)Oc2cc(O)ccc21 [Liquiritigenin, liquiritigenin]
- AUC(0–∞) [1]: 20.38 ± 4.30 mg·L/min
- Tmax [1]: 0.445 h
- MRT inf [1]: 4.92 h
- half-life [1]: 3.87 ± 0.477 h
- Vd/F [1]: 341 ± 73.6 L/kg
- Autosampler stability (24 h) Mean ([2]; high QC nominal concentration): 97.16%
- Autosampler stability (24 h) Mean ([2]; low QC nominal concentration): 98.45%
- Autosampler stability (24 h) Mean [2, 3]: 93.53%
- Stability (24 h at room temperature) Mean ([2]; high QC nominal concentration): 97.03%

SMILES: O=C1C[C@@H](c2ccc(O[C@@H]3O[C@H](CO)[C@@H](O)[C@H](O)[C@H]3O)cc2)Oc2cc(O)ccc21 [Liquiritin, liquiritin]
- AUC(0–∞) [1]: 54.87 ± 14.40 mg·L/min
- MRT inf [1]: 5.93 h
- half-life [1]: 5.16 ± 1.11 h
- Vd/F [1]: 167 ± 35.9 L/kg
- Autosampler stability (24 h) Mean ([2]; high QC nominal concentration): 90.84%
- Autosampler stability (24 h) Mean [2, 3]: 92.30%
- Stability (24 h at room temperature) Mean ([2]; high QC nominal concentration): 106.73%
- Stability (24 h at room temperature) Mean ([2]; low QC nominal concentration): 95.70%
- Freeze-thaw stability (3 cycles) Mean ([2]; high QC nominal concentration): 97.91%
- Freeze-thaw stability (3 cycles) Mean ([2]; low QC nominal concentration): 101.75%
- Freeze-thaw stability (3 cycles) Mean [2, 3]: 109.75%

SMILES: C[C@@]12C[C@@]3(O)O[C@@H](O1)[C@]1(COC(=O)c4ccccc4)[C@H]3C[C@@]12O[C@@H]1O[C@H](CO)[C@@H](O)[C@H](O)[C@H]1O [Paeoniflorin, paeoniflorin]
- AUC(0–∞) [1]: 904.73 ± 317.76 mg·L/min
- Tmax [1]: 1.33 h
- MRT inf [1]: 3.93 h
- half-life [1]: 2.38 ± 0.502 h
- Vd/F [1]: 6.31 ± 1.63 L/kg
- Autosampler stability (24 h) Mean ([2]; high QC nominal concentration): 113.81%
- Autosampler stability (24 h) Mean ([2]; low QC nominal concentration): 103.46%
- Autosampler stability (24 h) Mean [2, 3]: 98.29%
- Stability (24 h at room temperature) Mean ([2]; high QC nominal concentration): 109.75%
- Stability (24 h at room temperature) Mean ([2]; low QC nominal concentration): 105.66%
- Stability (24 h at room temperature) Mean [2, 3]: 91.25%
- Freeze-thaw stability (3 cycles) Mean ([2]; low QC nominal concentration): 97.71%
- Freeze-thaw stability (3 cycles) Mean [2, 3]: 92.82%
